From patent publication US20240041991A1, “STABLE LIQUID DISPERSINB COMPOSITIONS” (KANE BIOTECH INC., priority 2020, published 2024)
Where two headings read alike, the source gives them in different places. Marks after values point to notes of the source that are not given here.

Tested on: DispersinB
Type: biochemical, Aggregatibacter actinomycetemcomitans
Conditions: polyol % as in label
Method: Samples from each formula was incubated at 3 different temperatures (42° C., 52° C. and 62° C.) for 3 hours. Following a 3 hour incubation, the samples were brought to room temperature for enzymatic activity assay.
Two-tailed paired T-test was performed by to compare each polyol containing treatment with the treatment devoid of polyol. Treatment with probability values (p) less than 5% (0.05) was considered significant.

Q: Which results are given for OC[C@@H](O)[C@@H](O)CO [Erythritol, (2R,3S)-Butane-1,2,3,4-tetrol]?
A: % enzymatic activity of DispersinB (Mean) (4° C., freshly made control without polyol = 100%, listed as 1% Erythritol): 105%; % enzymatic activity of DispersinB (Mean) (4° C., freshly made control without polyol = 100%, listed as 2.5% Erythritol): 97%; % enzymatic activity of DispersinB (Mean) (4° C., freshly made control without polyol = 100%, listed as 5% Erythritol): 101%; % enzymatic activity of DispersinB (Mean) (4° C., freshly made control without polyol = 100%, listed as 10% Erythritol): 97%; % enzymatic activity of DispersinB (Mean) (4° C., freshly made control without polyol = 100%, listed as 15% Erythritol): 96%; % enzymatic activity of DispersinB (Mean) (4° C., freshly made control without polyol = 100%, listed as 20% Erythritol): 104%; % enzymatic activity of DispersinB (Mean) (4° C., freshly made control without polyol = 100%, listed as 25% Erythritol): 109%; % enzymatic activity of DispersinB (Mean) (42° C. for 3 hours, control without polyol = 100%, listed as 1% Erythritol): 109* %; % enzymatic activity of DispersinB (Mean) (42° C. for 3 hours, control without polyol = 100%, listed as 2.5% Erythritol): 107* %; % enzymatic activity of DispersinB (Mean) (42° C. for 3 hours, control without polyol = 100%, listed as 5% Erythritol): 106* %; % enzymatic activity of DispersinB (Mean) (42° C. for 3 hours, control without polyol = 100%, listed as 10% Erythritol): 107* %; % enzymatic activity of DispersinB (Mean) (42° C. for 3 hours, control without polyol = 100%, listed as 15% Erythritol): 119* %; % enzymatic activity of DispersinB (Mean) (42° C. for 3 hours, control without polyol = 100%, listed as 20% Erythritol): 113* %; % enzymatic activity of DispersinB (Mean) (42° C. for 3 hours, control without polyol = 100%, listed as 25% Erythritol): 117* %; % enzymatic activity of DispersinB (Mean) (52° C. for 3 hours, control without polyol = 100%, listed as 1% Erythritol): 6* %; % enzymatic activity of DispersinB (Mean) (52° C. for 3 hours, control without polyol = 100%, listed as 2.5% Erythritol): 20* %; % enzymatic activity of DispersinB (Mean) (52° C. for 3 hours, control without polyol = 100%, listed as 5% Erythritol): 33* %; % enzymatic activity of DispersinB (Mean) (52° C. for 3 hours, control without polyol = 100%, listed as 10% Erythritol): 58* %; % enzymatic activity of DispersinB (Mean) (52° C. for 3 hours, control without polyol = 100%, listed as 15% Erythritol): 78* %; % enzymatic activity of DispersinB (Mean) (52° C. for 3 hours, control without polyol = 100%, listed as 20% Erythritol): 95* %; % enzymatic activity of DispersinB (Mean) (52° C. for 3 hours, control without polyol = 100%, listed as 25% Erythritol): 121* %; % enzymatic activity of DispersinB (Mean) (62° C. for 3 hours, control without polyol = 100%, listed as 1% Erythritol): 0%; % enzymatic activity of DispersinB (Mean) (62° C. for 3 hours, control without polyol = 100%, listed as 2.5% Erythritol): 0%; % enzymatic activity of DispersinB (Mean) (62° C. for 3 hours, control without polyol = 100%, listed as 5% Erythritol): 0%; % enzymatic activity of DispersinB (Mean) (62° C. for 3 hours, control without polyol = 100%, listed as 10% Erythritol): 0%; % enzymatic activity of DispersinB (Mean) (62° C. for 3 hours, control without polyol = 100%, listed as 15% Erythritol): 0%; % enzymatic activity of DispersinB (Mean) (62° C. for 3 hours, control without polyol = 100%, listed as 20% Erythritol): 0%; % enzymatic activity of DispersinB (Mean) (62° C. for 3 hours, control without polyol = 100%, listed as 25% Erythritol): 20* %

Q: With OC[C@@H](O)[C@@H](O)[C@H](O)[C@H](O)CO[C@H]1O[C@H](CO)[C@@H](O)[C@H](O)[C@H]1O [Isomalt, (2R,3R,4R,5R)-6-[[(2S,3R,4S,5S,6R)-3,4,5-Trihydroxy-6-(hydroxymethyl)-2-tetrahydropyranyl]oxy]hexane-1,2,3,4,5-pentol] as the compound, how does the “% enzymatic activity of DispersinB (Mean)” value (from here on “% enzymatic activity”) (4° C., freshly made control without polyol = 100%, listed as 1% Isomalt) read?
A: Its value is 105%.

Q: What about the “% enzymatic activity” value (4° C., freshly made control without polyol = 100%, listed as 2.5% Isomalt) of the same compound?
A: Its value is 105%.

Q: And the “% enzymatic activity” value (4° C., freshly made control without polyol = 100%, listed as 3% Isomalt)?
A: Its value is 106%.

Q: And the “% enzymatic activity” value (4° C., freshly made control without polyol = 100%, listed as 5% Isomalt)?
A: The value was 107%.

Q: And the “% enzymatic activity” value (4° C., freshly made control without polyol = 100%, listed as 10% Isomalt)?
A: The value was 106%.

Q: And the “% enzymatic activity” value (4° C., freshly made control without polyol = 100%, listed as 15% Isomalt)?
A: Its value is 101%.

Q: And the “% enzymatic activity” value (4° C., freshly made control without polyol = 100%, listed as 20% Isomalt)?
A: The value was 102%.

Q: And the “% enzymatic activity” value (42° C. for 3 hours, control without polyol = 100%, listed as 1% Isomalt)?
A: The value was 102* %.

Q: And the “% enzymatic activity” value (42° C. for 3 hours, control without polyol = 100%, listed as 2.5% Isomalt)?
A: Its value is 100* %.

Q: What about the “% enzymatic activity” value (42° C. for 3 hours, control without polyol = 100%, listed as 3% Isomalt) of the same compound?
A: The value was 100* %.

Q: And the “% enzymatic activity” value (42° C. for 3 hours, control without polyol = 100%, listed as 5% Isomalt)?
A: The value was 99* %.

Q: What about the “% enzymatic activity” value (42° C. for 3 hours, control without polyol = 100%, listed as 10% Isomalt) of the same compound?
A: Its value is 107* %.

Q: And the “% enzymatic activity” value (42° C. for 3 hours, control without polyol = 100%, listed as 15% Isomalt)?
A: The value was 106* %.

Q: And the “% enzymatic activity” value (42° C. for 3 hours, control without polyol = 100%, listed as 20% Isomalt)?
A: The value was 107* %.

Q: What about the “% enzymatic activity” value (52° C. for 3 hours, control without polyol = 100%, listed as 1% Isomalt) of the same compound?
A: Its value is 2%.

Q: What about the “% enzymatic activity” value (52° C. for 3 hours, control without polyol = 100%, listed as 2.5% Isomalt) of the same compound?
A: Its value is 3%.

Q: And the “% enzymatic activity” value (52° C. for 3 hours, control without polyol = 100%, listed as 3% Isomalt)?
A: The value was 4* %.

Q: What about the “% enzymatic activity” value (52° C. for 3 hours, control without polyol = 100%, listed as 5% Isomalt) of the same compound?
A: Its value is 11* %.

Q: What about the “% enzymatic activity” value (52° C. for 3 hours, control without polyol = 100%, listed as 10% Isomalt) of the same compound?
A: The value was 37* %.

Q: What about the “% enzymatic activity” value (52° C. for 3 hours, control without polyol = 100%, listed as 15% Isomalt) of the same compound?
A: Its value is 82* %.

Q: And the “% enzymatic activity” value (52° C. for 3 hours, control without polyol = 100%, listed as 20% Isomalt)?
A: Its value is 102* %.

Q: What about the “% enzymatic activity” value (62° C. for 3 hours, control without polyol = 100%, listed as 1% Isomalt) of the same compound?
A: The value was 0%.

Q: And the “% enzymatic activity” value (62° C. for 3 hours, control without polyol = 100%, listed as 2.5% Isomalt)?
A: The value was 0%.

Q: What about the “% enzymatic activity” value (62° C. for 3 hours, control without polyol = 100%, listed as 3% Isomalt) of the same compound?
A: Its value is 0%.

Q: What about the “% enzymatic activity” value (62° C. for 3 hours, control without polyol = 100%, listed as 5% Isomalt) of the same compound?
A: The value was 0%.

Q: What about the “% enzymatic activity” value (62° C. for 3 hours, control without polyol = 100%, listed as 10% Isomalt) of the same compound?
A: The value was 0%.

Q: And the “% enzymatic activity” value (62° C. for 3 hours, control without polyol = 100%, listed as 15% Isomalt)?
A: Its value is 12* %.

Q: What about the “% enzymatic activity” value (62° C. for 3 hours, control without polyol = 100%, listed as 20% Isomalt) of the same compound?
A: Its value is 6* %.
